Measured values as given in ChEMBL document CHEMBL5154760, “Metabolism guided optimization of peptidomimetics as non-covalent proteasome inhibitors for cancer treatment” (Eur J Med Chem, 2022).
Activity calls are given as the source filed them. The rule behind the calls is not given here.

Tests used:
[1] = target: 20S proteasome; test: Inhibition of chymotrypsin-like activity of human 20S proteasome using Suc-Leu Leu-Val-Tyr-AMC as substrate preincubated for 15 mins followed by substrate addition measured by fluorescence assay; type: protein-complex assay
[2] = target: 20S proteasome (Homo sapiens) (UniProt P49721+P20618+P28074+P28062+P28065+P28072+P25786+P25787+P25788+P25789+P28066+P60900+O14818+Q8TAA3+P40306+A5LHX3+P49720+P28070+Q99436); test: Inhibition of chymotrypsin-like activity of 20S proteasome in human MM1.S cells assessed as accumulation of polyubiquitinated proteins at 10 to 1000 nM and measured by Western blot analysis; type: cell-based; conditions: dose 10-1000 nM
[3] = system: MV4-11; test: Antiproliferative activity against human MV4-11 cells after 72 hrs by MTS assay; type: functional, cell-based; conditions: MV4-11, 72 h
[4] = system: MM1.S; test: Antiproliferative activity against human MM1.S cells after 72 hrs by MTS assay; type: functional, cell-based
[5] = system: RPMI-8226; test: Antiproliferative activity against human RPMI-8226 cells after 72 hrs by MTS assay; type: functional, cell-based; conditions: RPMI-8226, 72 h
[6] = Stability of the compound in mouse blood assessed as half-life measured by LC-MS/MS analysis; type: ADME, tissue-based
[7] = In vivo inhibition of chymotrypsin-like activity of 20S proteasome in ICR mouse at 5 mg/kg, iv; type: functional

| SMILES | IC50 [1] [nM] | IC50 [3] [nM] | IC50 [4] [nM] | IC50 [5] [nM] | further results |
| --- | --- | --- | --- | --- | --- |
| CN(C(=O)C1CCN(C(=O)N[C@@H](CC(=O)NCC(C)(C)C)C(=O)N[C@@H](CCc2ccccc2)C(=O)N2CCc3ccccc3C2)CC1)c1cccnc1 | > 10000 | – | – | – | – |
| C[C@@H](c1ccccc1)N(C)C(=O)[C@H](CCc1ccccc1)NC(=O)[C@H](CC(=O)NCC(C)(C)C)NC(=O)N1CCC(C(=O)N(C)c2cccnc2)CC1 | > 10000 | – | – | – | – |
| CN(C(=O)C1CCN(C(=O)N[C@@H](CC(=O)NCC(C)(C)C)C(=O)N[C@@H](CCc2ccccc2)C(=O)N[C@H]2CCCc3ccccc32)CC1)c1cccnc1 | > 10000 | – | – | – | – |
| CC(C)C[C@H](NC(=O)[C@H](CCc1ccccc1)NC(=O)CN1CCOCC1)C(=O)N[C@@H](Cc1ccccc1)C(=O)N[C@@H](CC(C)C)C(=O)[C@]1(C)CO1 | – | 0.983 | 9.15 | 6.35 | – |
| CC(C)(C)CNC(=O)C[C@H](NC(=O)N1CCC(C(=O)Nc2cnccn2)CC1)C(=O)N[C@@H](CCc1ccccc1)C(=O)N1CCc2ccccc2C1 | > 10000 | – | – | – | – |
| CC(C)(C)CNC(=O)C[C@H](NC(=O)N1CCC(NC(=O)Nc2ccc(Cl)cc2)CC1)C(=O)N[C@@H](CCc1ccccc1)C(=O)N[C@@H]1CCCc2ccccc21 | 41.2 | – | – | – | – |
| C[C@H](NC(=O)[C@H](CCc1ccccc1)NC(=O)[C@H](CC(=O)NCC(C)(C)C)NC(=O)N1CCC(C(=O)N(C)c2cccnc2)CC1)c1ccccc1 | > 10000 | – | – | – | – |
| CN(Cc1ccccc1Cl)C(=O)[C@H](CCc1ccccc1)NC(=O)[C@H](CC(=O)NCC(C)(C)C)NC(=O)N1CCC(C(=O)Nc2cccnc2)CC1 | 1740 | – | – | – | – |
| CC(C)(C)CNC(=O)C[C@H](NC(=O)N1CCN(C(=O)Nc2ccc(Cl)cc2)CC1)C(=O)N[C@@H](CCc1ccccc1)C(=O)N[C@@H]1CCCc2ccccc21 | 23.7 | – | – | – | – |
| CC(C)(C)CNC(=O)C[C@H](NC(=O)N1CCC(C(=O)Nc2cccnc2)CC1)C(=O)N[C@@H](CCc1ccccc1)C(=O)N[C@H]1CCCc2ccccc21 | 4480 | – | – | – | – |
| C[C@H](c1ccccc1)N(C)C(=O)[C@H](CCc1ccccc1)NC(=O)[C@H](CC(=O)NCC(C)(C)C)NC(=O)N1CCC(C(=O)N(C)c2cccnc2)CC1 | > 10000 | – | – | – | – |
| CC(C)(C)CNC(=O)C[C@H](NC(=O)N1CCC(C(=O)Nc2cccnc2)CC1)C(=O)N[C@@H](CCc1ccccc1)C(=O)N1CCc2ccccc2C1 | 1590 | – | – | – | – |
| COc1ccc(N(C)C(=O)C2CCN(C(=O)N[C@@H](CC(=O)NCC(C)(C)C)C(=O)N[C@@H](CCc3ccccc3)C(=O)N[C@@H]3CCCc4ccccc43)CC2)cc1 | 25 | – | – | – | – |
| CC(C)(C)CNC(=O)C[C@H](NC(=O)N1CCN(C(=O)c2cccnc2)CC1)C(=O)N[C@@H](CCc1ccccc1)C(=O)N[C@@H]1CCCc2ccccc21 | 25 | – | – | – | – |
| C[C@@H](c1ccccc1)N(C)C(=O)[C@H](CCc1ccccc1)NC(=O)[C@H](CC(=O)NCC(C)(C)C)NC(=O)N1CCC(C(=O)Nc2cccnc2)CC1 | > 10000 | – | – | – | – |
| C[C@H](NC(=O)[C@H](CCc1ccccc1)NC(=O)[C@H](CC(=O)NCC(C)(C)C)NC(=O)N1CCC(C(=O)Nc2cccnc2)CC1)c1ccccc1 | > 10000 | – | – | – | – |
| C[C@@H](NC(=O)[C@H](CCc1ccccc1)NC(=O)[C@H](CC(=O)NCC(C)(C)C)NC(=O)N1CCC(C(=O)N(C)c2cccnc2)CC1)c1ccccc1 | 99.8 | – | – | – | – |
| CN(Cc1ccccc1Cl)C(=O)[C@H](CCc1ccccc1)NC(=O)[C@H](CC(=O)NCC(C)(C)C)NC(=O)N1CCC(C(=O)N(C)c2cccnc2)CC1 | > 10000 | – | – | – | – |

Continued, in another order:

| IC50 [1] [nM] | IC50 [3] [nM] | IC50 [4] [nM] | IC50 [5] [nM] | SMILES | further results |
| --- | --- | --- | --- | --- | --- |
| 9.31 | 2.74 | 8.82 | 20.7 | CN(C(=O)C1CCN(C(=O)N[C@@H](CC(=O)NCC(C)(C)C)C(=O)N[C@@H](CCc2ccccc2)C(=O)N[C@@H]2CCCc3ccccc32)CC1)c1ccccc1 | inhibition [2]: Active; half-life [6]: 2.46 h |
| 8.09 | 4.93 | 12.4 | 24 | CC(C)(C)CNC(=O)C[C@H](NC(=O)N1CCC(C(=O)N2CCCc3ccccc32)CC1)C(=O)N[C@@H](CCc1ccccc1)C(=O)N[C@@H]1CCCc2ccccc21 | – |
| 8.59 | 12 | 54.2 | 81.7 | CN(C(=O)C1CCN(C(=O)N[C@@H](CC(=O)NCC(C)(C)C)C(=O)N[C@@H](CCc2ccccc2)C(=O)N[C@@H]2CCCc3ccccc32)CC1)c1cccnc1 | – |
| 8.39 | 2.46 | 9.07 | 15.3 | CCN(C(=O)C1CCN(C(=O)N[C@@H](CC(=O)NCC(C)(C)C)C(=O)N[C@@H](CCc2ccccc2)C(=O)N[C@@H]2CCCc3ccccc32)CC1)c1ccccc1 | inhibition [2]: Active; half-life [6]: 5.49 h; inhibition in vivo at 5 mg/kg [7]: 50% |
| 9.38 | 4.87 | 17.7 | 26.2 | CN(C(=O)C1CCN(C(=O)N[C@@H](CC(=O)NCC(C)(C)C)C(=O)N[C@@H](CCc2ccccc2)C(=O)N[C@@H]2CCCc3ccccc32)CC1)c1ccc(F)cc1 | – |
| 21.6 | – | – | – | CN(C(=O)C1CCN(C(=O)N[C@@H](CC(=O)NCC(C)(C)C)C(=O)N[C@@H](CCc2ccccc2)C(=O)N[C@@H]2CCCc3ccccc32)CC1)c1ccccc1Cl | – |
| 22.6 | – | – | – | CN(C(=O)C1CCN(C(=O)N[C@@H](CC(=O)NCC(C)(C)C)C(=O)N[C@@H](CCc2ccccc2)C(=O)N[C@@H]2CCCc3ccccc32)CC1)c1cccc(Cl)c1 | – |
| 5.15 | 7.65 | 33.5 | 60.4 | CN(C(=O)c1cccnc1)C1CCN(C(=O)N[C@@H](CC(=O)NCC(C)(C)C)C(=O)N[C@@H](CCc2ccccc2)C(=O)N[C@@H]2CCCc3ccccc32)CC1 | – |
| 9.26 | 51.7 | 84 | > 100 | CN(C(=O)C1CCN(C(=O)N[C@@H](CC(=O)NCC(C)(C)C)C(=O)N[C@@H](CCc2ccccc2)C(=O)N[C@@H]2CCCc3ccccc32)CC1)c1ccncc1 | – |
| 3.43 | 1.57 | 8.36 | 12.1 | CN(C(=O)C1CCN(C(=O)N[C@@H](CC(=O)NCC(C)(C)C)C(=O)N[C@@H](CCc2ccccc2)C(=O)N[C@@H]2CCCc3ccccc32)CC1)c1nccs1 | inhibition [2]: Active; half-life [6]: 1.4 h; inhibition in vivo at 5 mg/kg [7]: 50% |
| 8.92 | 4.85 | 20.6 | 33.7 | CN(C(=O)C1CCN(C(=O)N[C@@H](CC(=O)NCC(C)(C)C)C(=O)N[C@@H](CCc2ccccc2)C(=O)N[C@@H]2CCCc3ccccc32)CC1)c1ccccn1 | – |
| 7.24 | 4.6 | 16.9 | 19.9 | CC(C)(C)CNC(=O)C[C@H](NC(=O)N1CCC(C(=O)N2CCc3ccccc32)CC1)C(=O)N[C@@H](CCc1ccccc1)C(=O)N[C@@H]1CCCc2ccccc21 | – |
| 4.03 | 6.83 | 35.1 | 40.7 | CC(C)(C)CNC(=O)C[C@H](NC(=O)N1CCC(C(=O)Nc2cccnc2)CC1)C(=O)N[C@@H](CCc1ccccc1)C(=O)N[C@@H]1CCCc2ccccc21 | – |
| 6.95 | 4.06 | 26.9 | 20.8 | CN(C(=O)C1CCN(C(=O)N[C@@H](CC(=O)NCC(C)(C)C)C(=O)N[C@@H](CCc2ccccc2)C(=O)N[C@@H]2CCCc3ccccc32)CC1)c1ccc(Cl)cc1 | – |
| 0.92 | – | – | – | CC(C)(C)CNC(=O)C[C@H](NC(=O)N1CCC(C(=O)Nc2nccs2)CC1)C(=O)N[C@@H](CCc1ccccc1)C(=O)NCc1ccccc1Cl | half-life [6]: 0.613 h |
| 20.3 | – | – | – | C[C@@H](NC(=O)[C@H](CCc1ccccc1)NC(=O)[C@H](CC(=O)NCC(C)(C)C)NC(=O)N1CCC(C(=O)Nc2cccnc2)CC1)c1ccccc1 | – |
